Tests used:
[1] = test system: B. subtilis 168; test: fitness (endpoint OD595 vs no drug) (fraction); higher = more growth
Method in brief: (§1)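 Fitness was defined as the optical density at the transition into stationary phase relative to the robust mean of no-drug control wells. Values were capped at 1. Cultures were started at OD595 0.01 in 384-well plates (30 µl, or 55 µl for S. pneumoniae) in TSB, LB Lennox or CY at 37 °C. OD595 was recorded every 30 min over 14 h, with the first reading subtracted as background.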

[2] = test system: S. aureus DSM 20231; test: as above
Method in brief: as §1

[3] = test system: S. pneumoniae D39V; test: as above
Method in brief: as §1

[4] = test system: B. subtilis 168; test: Bliss interaction score (quartile over a dose matrix) (fitness difference); higher = more antagonism (negative = synergy)
Method in brief: (§2)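 Fitness was derived from optical density at entry into stationary phase, divided by the robust mean of the no-drug wells on the same plate. That reading was taken as OD595, and the ratio was capped at 1. Single-drug fitness was inferred from the combination data. The Bliss score, observed fitness minus the expected product of single-drug fitness, was summarised as quartiles over technical, biological and donor/recipient replicates.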

[5] = test system: S. aureus DSM 20231; test: as above
Method in brief: as §2

[6] = test system: S. aureus Newman; test: as above
Method in brief: as §2

[7] = test system: S. pneumoniae D39V; test: as above
Method in brief: as §2
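Throughout, for Bliss interaction score (quartile over a dose matrix): first quartile when negative (synergy) and third quartile when positive (antagonism).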

CCC[C@@H]1C[C@@H](C(=O)N[C@@H]([C@H]2O[C@H](SC)[C@H](O)[C@@H](O)[C@H]2O)[C@@H](C)O)N(C)C1 [Lincomycin] + CCN(CC)CCOC(=O)c1ccc(N)cc1 [Procaine]
fitness
Details	partner 85.5 µg/mL	partner 171 µg/mL	partner 342 µg/mL
[1], first compound 0.1 µg/mL	0.917	0.932	0.891
[1], first compound 0.2 µg/mL	0.899	0.922	0.862
[1], first compound 0.4 µg/mL	0.875	0.875	0.853
[2], first compound 0.1 µg/mL	0.844	0.926	0.863
[2], first compound 0.2 µg/mL	0.749	0.837	0.821
[2], first compound 0.4 µg/mL	0.391	0.39	0.363
[3], first compound 0.215 µg/mL	0.812	0.783	0.784
[3], first compound 0.43 µg/mL	0.717	0.695	0.697
[3], first compound 0.86 µg/mL	–	0.39	0.495

fitness, [3], one replicate
Details	first compound 0.2 µg/mL	first compound 0.4 µg/mL	first compound 0.8 µg/mL
partner 85.5 µg/mL	0.748	0.673	0.0927
partner 171 µg/mL	0.809	0.693	0.148
partner 342 µg/mL	0.746	0.665	0.126

Details	Bliss interaction score
[4]	0.0306
[5]	0.0558
[6]	0.0563
[7]	-0.0294

CCC[C@@H]1C[C@@H](C(=O)N[C@@H]([C@H]2O[C@H](SC)[C@H](O)[C@@H](O)[C@H]2O)[C@H](C)Cl)N(C)C1 [Clindamycin] + CCC[C@@H]1C[C@@H](C(=O)N[C@@H]([C@H]2O[C@H](SC)[C@H](O)[C@@H](O)[C@H]2O)[C@@H](C)O)N(C)C1 [Lincomycin]
fitness, [1], one replicate
Details	first compound 0.0039 µg/mL	first compound 0.0078 µg/mL	first compound 0.0156 µg/mL
partner 0.4 µg/mL	0.964	0.838	0.828
partner 0.8 µg/mL	0.965	0.803	0.83
partner 1.6 µg/mL	0.94	0.817	0.81

Details	fitness
[1], first compound 0.0625 µg/mL, partner 0.1 µg/mL	0.659
[1], first compound 0.0625 µg/mL, partner 0.2 µg/mL	0.613
[1], first compound 0.0625 µg/mL, partner 0.4 µg/mL	0.675
[1], first compound 0.125 µg/mL, partner 0.1 µg/mL	0.454
[1], first compound 0.125 µg/mL, partner 0.2 µg/mL	0.406
[1], first compound 0.25 µg/mL, partner 0.1 µg/mL	0.363
[1], first compound 0.25 µg/mL, partner 0.2 µg/mL	0.355
[1], first compound 0.25 µg/mL, partner 0.4 µg/mL	0.356
[2], first compound 0.0312 µg/mL, partner 0.2 µg/mL	0.265
[2], first compound 0.0312 µg/mL, partner 0.4 µg/mL	0.137
[2], first compound 0.0625 µg/mL, partner 0.1 µg/mL	0.16
[2], first compound 0.0625 µg/mL, partner 0.2 µg/mL	0.112
[2], first compound 0.0625 µg/mL, partner 0.4 µg/mL	0.083
[2], first compound 0.125 µg/mL, partner 0.1 µg/mL	0.0376
[2], first compound 0.125 µg/mL, partner 0.2 µg/mL	0.0455
[2], first compound 0.125 µg/mL, partner 0.4 µg/mL	0.0541
[3], first compound 0.0125 µg/mL, partner 0.2 µg/mL	0.496
[3], first compound 0.0125 µg/mL, partner 0.4 µg/mL	0.351
[3], first compound 0.0125 µg/mL, partner 0.8 µg/mL	0.0708
[3], first compound 0.015 µg/mL, partner 0.215 µg/mL	0.831
[3], first compound 0.015 µg/mL, partner 0.43 µg/mL	0.741
[3], first compound 0.015 µg/mL, partner 0.86 µg/mL	0.482
[3], first compound 0.025 µg/mL, partner 0.2 µg/mL	0.356
[3], first compound 0.025 µg/mL, partner 0.4 µg/mL	0.243
[3], first compound 0.025 µg/mL, partner 0.8 µg/mL	0.0559
[3], first compound 0.03 µg/mL, partner 0.215 µg/mL	0.772
[3], first compound 0.03 µg/mL, partner 0.43 µg/mL	0.739
[3], first compound 0.03 µg/mL, partner 0.86 µg/mL	0.394
[3], first compound 0.05 µg/mL, partner 0.2 µg/mL	0.0687
[3], first compound 0.05 µg/mL, partner 0.4 µg/mL	0.0516
[3], first compound 0.05 µg/mL, partner 0.8 µg/mL	0.0164
[3], first compound 0.06 µg/mL, partner 0.215 µg/mL	0.632
[3], first compound 0.06 µg/mL, partner 0.43 µg/mL	0.524
[3], first compound 0.06 µg/mL, partner 0.86 µg/mL	0.152

Details	Bliss interaction score
[4]	0.193
[5]	-0.0523
[6]	-0.22
[7]	0.0748

CCC[C@@H]1C[C@@H](C(=O)N[C@@H]([C@H]2O[C@H](SC)[C@H](O)[C@@H](O)[C@H]2O)[C@@H](C)O)N(C)C1 [Lincomycin] + CN[C@@H]1[C@H](O)[C@H](NC)[C@H]2O[C@@]3(O)C(=O)C[C@@H](C)O[C@H]3O[C@@H]2[C@H]1O [Spectinomycin]
fitness
Details	partner 2 µg/mL	partner 4 µg/mL	partner 8 µg/mL	partner 16 µg/mL
[1], first compound 0.1 µg/mL	0.923	0.923	0.849	–
[1], first compound 0.2 µg/mL	0.937	0.929	0.847	–
[1], first compound 0.4 µg/mL	0.907	0.859	0.861	–
[2], first compound 0.1 µg/mL	–	0.819	0.732	0.566
[2], first compound 0.2 µg/mL	–	0.581	0.54	0.351
[2], first compound 0.4 µg/mL	–	–	–	0.122
[3], first compound 0.215 µg/mL	–	0.777	0.787	0.721
[3], first compound 0.43 µg/mL	–	0.688	0.713	0.616
[3], first compound 0.86 µg/mL	–	0.268	0.286	0.158

fitness, one replicate
Details	first compound 0.1 µg/mL	first compound 0.2 µg/mL	first compound 0.4 µg/mL	first compound 0.8 µg/mL
[2], partner 32 µg/mL	0.377	0.176	0.0758	–
[2], partner 64 µg/mL	0.0561	0.042	0.0347	–
[3], partner 4 µg/mL	–	0.777	0.659	0.412
[3], partner 8 µg/mL	–	0.752	0.63	0.35

Details	Bliss interaction score
[4]	-0.0786
[5]	-0.175
[6]	-0.195
[7]	-0.0914

Reference: the supplement of paper PMC10627819
